The values that follow come from US4977275A, “Pyrrole derivatives” (SS Pharmaceutical Co., Ltd., priority 1988, dated 1990).

Values after ≈ are worked out from the molar mass of the structure shown.

Assay type in all cases: cell-based
The test system of assay [1] is Bacillus subtilis ATCC 6633. The experiment in a line: antimicrobial activity, minimum inhibitory concentration. Particulars: ATCC6633.
The subject of assay [2] is Staphylococcus aureus FDA 209P. The assay is described as above. The note with it: FDA209P.
The test system of assay [3] is Candida albicans NHL 4019. The assay is described as above. The note with it: NHL4019.
Assay [4] relates to Candida albicans Yu-1200. The description is as above. The note with it: YU1200.
The test system of assay [5] is Saccharomyces cerevisiae ATCC 9763. The assay is described as above. Particulars: ATCC9763.
Assay [6] deals with Helminthosporium sesamum IAM 5012. The description is as above. Particulars: IAM5012.
In assay [7] the test system is Piricularia oryzae IAM 5016. Briefly: microbe, parasite or virus in culture. The note with it: read-out: Minimum inhibitory concentration (MIC).
For assay [8], the system named is Debaryomyces kloeckeri IFO 0015. Briefly: antimicrobial activity, minimum inhibitory concentration. Particulars: IFO0015.

As for `CCCCCCC(=O)Oc1ccc(F)cc1C(=O)c1[nH]c(Br)c(Br)c1Br` [Compound 2, 2-(2-Heptanoyloxy-5-fluorobenzoyl)-3,4,5-tribromopyrrole], the MIC in assay [1] is below 0.2 µg/mL; in assay [2], below 0.2 µg/mL; in assay [3], 12.5 µg/mL (≈ 22.6 µM); in assay [4] it was 12.5 µg/mL (≈ 22.6 µM); in assay [5] it was 12.5 µg/mL (≈ 22.6 µM); in assay [6] it was 6.25 µg/mL (≈ 11.3 µM). Besides, the MIC in assay [7] is below 0.2 µg/mL; in assay [8], 12.5 µg/mL (≈ 22.6 µM).

On to `CCCCCCC(=O)Oc1ccccc1C(=O)c1[nH]c(Cl)c(Cl)c1I` [Compound 6, 2-(2-heptanoyloxybenzoyl)-3-iodo-4,5-dichloropyrrole], for which the MIC amounted to 0.39 µg/mL (≈ 0.789 µM) in assay [1]; 0.39 µg/mL (≈ 0.789 µM) in assay [2]; 12.5 µg/mL (≈ 25.3 µM) in assay [3]; 12.5 µg/mL (≈ 25.3 µM) in assay [4]; 12.5 µg/mL (≈ 25.3 µM) in assay [5]; 6.25 µg/mL (≈ 12.6 µM) in assay [6]. Also, the MIC in assay [7] is below 0.2 µg/mL; in assay [8], 12.5 µg/mL (≈ 25.3 µM).

For the compound `O=C(CCCl)Oc1ccccc1C(=O)c1[nH]c(Cl)c(Cl)c1I` [Compound 9, 2-[2-(3-Chloropropionyloxy)benzoyl]-3-iodo-4,5-dichloropyrrole], the MIC in assay [1] was below 0.2 µg/mL; in assay [2] it was below 0.2 µg/mL; in assay [3], 6.25 µg/mL (≈ 13.2 µM); in assay [4], 6.25 µg/mL (≈ 13.2 µM); in assay [5], 12.5 µg/mL (≈ 26.5 µM); in assay [6] it was 6.25 µg/mL (≈ 13.2 µM). Further, the MIC in assay [7] is below 0.2 µg/mL; in assay [8], 12.5 µg/mL (≈ 26.5 µM).
